Results published in paper PMC9763021, “Comprehensive Assessment of Biomolecular Interactions of Morpholine-Based Mixed Ligand Cu(II) and Zn(II) Complexes of 2,2′-Bipyridine as Potential Anticancer and SARS-CoV-2 Agents: A Synergistic Experimental and Structure-Based Virtual Screening” (Bioinorganic Chemistry and Applications, 2022).

System: CT-DNA
Assay: DNA binding by UV-visible absorption titration
Set-up: species or system calf thymus
Conditions: for % H (hypochromism) / Δλ nm (red shift on DNA binding): Tris-HCl pH 7.4, 25°C; for ∆Gb° BH-I: from Kb BH-I; for ∆Gb° BH-I / ∆Gb° (BH-II) / ∆Gb° SK-I / ∆Gb° (SK-II) / ∆Gb° (WS-II) / ∆Gb° WS-I: T = 298 K; for ∆Gb° (BH-II): from Kb BH-II; for ∆Gb° SK-I: from Kb SK-I; for ∆Gb° (SK-II): from Kb SK-II; for ∆Gb° (WS-II): from Kb WS-II; for ∆Gb° WS-I: from Kb WS-I
Experimental: The DNA-binding experiment was conducted by an electronic absorption spectrophotometer by raising the DNA concentration from zero to 50 μM to the given concentration of all samples (50 μM) in Tris-HCl buffer solution (pH: 7.4) at 25°C [6, 28, 31, 32].
UV-visible absorption titration is the main imperative approach to observing the tendency of test substances to bind with deoxyribonucleic acid. The approach is commonly utilized to evaluate the potency and mode of binding of the test substances with deoxyribonucleic acid. The essential information regarding conformational change, the effectiveness of the DNA-substance binding, and the negatively charged phosphate on deoxyribonucleic acid are neutralized via exterior contact, and intercalation through interactions between π-π stacks is presented by DNA binding towards metal complexes. All complexes (1a-2a), including the free ligand (HL), were measured in the presence and absence of deoxyribonucleic acid by ultraviolet-visible spectrophotometric titrations under Tris-HCl buffer solution (pH: 7.4) at room temperature (Figure 2). In this case, all samples were exposed to two prominent electronic absorption bands at 260 nm and 336–343 nm, consequent to the π-π^∗ transition of the phenyl chromophore and MLCT, respectively. While the amount of DNA concentration rises in each test compound, the interaction of the chemical substance with DNA base pairs generates noticeable alterations in the intraligand charge transfer bands' strength and wavelength. […] The Kb findings were measured for all samples by the Wolfe–Shimmer equations […] by methods I and II, respectively, from the findings of the slope divided by the intercept in the linear regression plots of [DNA]/(ɛa − ɛf) vs. [DNA] and the intercept divided by intercept slope in the linear regression plot of (ɛb − ɛf)/(ɛa − ɛf) vs. 1/[DNA] M^−1 (Figure S17), and the Kb results for each sample were in the subsequent sequence: (1a) > (2a) > (HL). […] It is concluded that the morpholine linked ligand's coplanarity and 2,2′-bipyridine aromatic system complexation with the metal center, which promotes the complex to infiltrate DNA base pairs smoothly, and large aromatic systems may also assist the complex to penetrate the phosphate backbone's core deeply, and those substances may permit the complex to freely penetrate deep into the deoxyribonucleic acid double helix. In addition, the observed isosbestic points are found at 256 and 276 nm for free ligand and complexes (1a-2a), respectively. […] The Wolfe–Shimmer (1 and 2), Benesi–Hildebrand (3 and 4), and Sakthi–Krause equations (5 and 6) were supported to evaluate Kb results for all samples (Table 1). The Benesi–Hildebrand binding constant (Kb) values were measured using equations (3) and (4) by methods I and II, respectively, from the intercept divided by slope in the linear regression plot of [1/(Ax − A0)] vs. {1/[DNA]} M^−1 and the intercept divided by slope in the linear regression plot of [(Amax − A0)/(Ax − A0)] vs. {1/[DNA]} M^−1 (Figure S18). The Kb values were estimated using Sakthi–Krause equations (5) and (6) by methods I and II, respectively, with the intercept divided by slope in the linear regression plot of [(A/(A0 − A)] vs. {1/[DNA]} M^−1 (Figure S19) and the antilogarithm value of the intercept in the linear regression plot of log {1/[DNA]} vs. log [(A/(A0 − A)]M^−1 (Figure S20). In addition, the Van't Hoff equation (7) was supported to obtain the ∆Gb° values for DNA interaction, and equation (8) was supported to measure the % of chromicity for all substances (Table 1). The overall measured Kb findings were in the subsequent sequence: (1a) > (2a) > (HL). In these cases, the observed ∆Gb° values were reported in the range of −19.91 to −29.13, −21.55 to −26.04 and −22.50 to –25.22 kJ·mol^−1, respectively (Table 1). In these cases, the complex (1a) had the highest DNA-binding efficacy among all binding results. […]

[Cu+2].[O-]c1ccccc1N=Cc1ccc(N2CCOCC2)cc1.[O-]c1ccccc1N=Cc1ccc(N2CCOCC2)cc1.c1ccc(-c2ccccn2)nc1 [(1a), [Cu(L)2(bpy)]]
% H (hypochromism): 52.18%
Δλ nm (red shift on DNA binding): 07 nm
∆Gb° BH-I: -6.224 kcal/mol
∆Gb° (BH-II): -5.985 kcal/mol
∆Gb° SK-I: -5.772 kcal/mol
∆Gb° (SK-II): -6.028 kcal/mol
∆Gb° (WS-II): -5.918 kcal/mol

[O-]c1ccccc1N=Cc1ccc(N2CCOCC2)cc1.[O-]c1ccccc1N=Cc1ccc(N2CCOCC2)cc1.[Zn+2].c1ccc(-c2ccccn2)nc1 [(2a), [Zn(L)2(bpy)]]
% H (hypochromism): 43.15%
Δλ nm (red shift on DNA binding): 05 nm
∆Gb° BH-I: -5.925 kcal/mol
∆Gb° (BH-II): -5.937 kcal/mol
∆Gb° SK-I: -5.664 kcal/mol
∆Gb° (SK-II): -5.868 kcal/mol
∆Gb° WS-I: -5.8114 kcal/mol
∆Gb° (WS-II): -5.774 kcal/mol

Oc1ccccc1N=Cc1ccc(N2CCOCC2)cc1 [(HL), 2-(4-morpholinobenzylideneamino)phenol]
% H (hypochromism): 37.13%
Δλ nm (red shift on DNA binding): 04 nm
∆Gb° BH-I: -5.151 kcal/mol
∆Gb° (BH-II): -5.851 kcal/mol
∆Gb° SK-I: -5.378 kcal/mol
∆Gb° (SK-II): -5.779 kcal/mol
∆Gb° WS-I: -5.7 kcal/mol
∆Gb° (WS-II): -5.712 kcal/mol
